From PubChem BioAssay (NCI)
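GI50: concentration for 50% inhibition of growth. The concentration for full growth arrest is given as TGI.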

Tests used:
Assay in all cases: growth of human tumour cells (NCI), 384-well format
[1] = test system: T-47D breast
[2] = test system: HS 578T breast
[3] = test system: UO-31 renal
[4] = test system: SN12C renal
[5] = test system: ACHN renal
[6] = test system: NCI-H322M lung
[7] = test system: NCI-H522 lung
[8] = test system: UACC-62 melanoma
[9] = test system: HOP-92 NSCLC
[10] = test system: 786-0 renal
[11] = test system: MDA-MB-231 breast
[12] = test system: TK-10 renal
[13] = test system: HOP-62 NSCLC
[14] = test system: SK-MEL-28 melanoma
[15] = test system: KM12 colon
[16] = test system: IGROV1 ovarian
[17] = test system: RXF 393 renal
[18] = test system: BT-549 breast
[19] = test system: SK-OV-3 ovarian
[20] = test system: SW-620 colon
[21] = test system: MOLT-4 leukemia
[22] = test system: SNB-75 CNS
[23] = test system: SF-268 CNS
[24] = test system: SNB-19 CNS
[25] = test system: HL-60(TB) leukemia
[26] = test system: A549 NSCLC
[27] = test system: NCI-H226 lung
[28] = test system: SK-MEL-5 melanoma
[29] = test system: M14 melanoma
[30] = test system: OVCAR-4 ovarian
[31] = test system: DU-145 prostate
[32] = test system: SR leukemia
[33] = test system: OVCAR-5 ovarian
[34] = test system: MALME-3M melanoma
[35] = test system: UACC-257 melanoma
[36] = test system: MDA-MB-468 breast
[37] = test system: NCI-H23 lung
[38] = test system: U251 glioblastoma
[39] = test system: SF-539 CNS
[40] = test system: HCT-116 colon
[41] = test system: PC-3 prostate
[42] = test system: SF-295 CNS
[43] = test system: NCI-H460 NSCLC
[44] = test system: MCF7 breast
[45] = test system: SK-MEL-2 melanoma
[46] = test system: K-562 leukemia
[47] = test system: CAKI-1 renal
[48] = test system: HCT-15 colon
[49] = test system: OVCAR-8 ovarian
[50] = test system: HT29 colon
[51] = test system: OVCAR-3 ovarian
[52] = test system: MDA-MB-435 melanoma
[53] = test system: EKVX NSCLC
[54] = test system: A498 renal
[55] = test system: COLO 205 colon

COc1cc(F)c(F)c(Nc2ccc(I)cc2F)c1NS(=O)(=O)C1(CC(O)CO)CC1 (stereo not given)
GI50 [1]: 21.2 µM
TGI [1]: 81.6 µM
GI50 [2]: 14.8 µM
TGI [2]: 28.1 µM
GI50 [3]: 13.4 µM
TGI [3]: 32.2 µM
GI50 [4]: 16.9 µM
TGI [4]: 35.3 µM
GI50 [5]: 17.1 µM
TGI [5]: 33.9 µM
GI50 [6]: 26 µM
TGI [6]: 59.3 µM
GI50 [7]: 15.4 µM
TGI [7]: 29.4 µM
GI50 [8]: 3.82 µM
TGI [8]: 14 µM
GI50 [9]: 14.7 µM
TGI [9]: 28.6 µM
GI50 [10]: 16.9 µM
TGI [10]: 31.7 µM
GI50 [11]: 13.9 µM
TGI [11]: 36.3 µM
GI50 [12]: 20.6 µM
TGI [12]: 53.8 µM
GI50 [13]: 14.2 µM
TGI [13]: 29.1 µM
GI50 [14]: 3.18 µM
TGI [14]: 13.3 µM
GI50 [15]: 16.1 µM
TGI [15]: 30 µM
GI50 [16]: 14.5 µM
TGI [16]: 31.5 µM
GI50 [17]: 13.4 µM
TGI [17]: 26.9 µM
GI50 [18]: 14.1 µM
TGI [18]: 27.2 µM
GI50 [19]: 21.8 µM
TGI [19]: 56.9 µM
GI50 [20]: 15.6 µM
TGI [20]: 41.3 µM
GI50 [21]: 14.1 µM
TGI [21]: 27.1 µM
GI50 [22]: 15 µM
TGI [22]: 31.4 µM
GI50 [23]: 19.7 µM
TGI [23]: 39.5 µM
GI50 [24]: 22.3 µM
TGI [24]: 62.9 µM
GI50 [25]: 6.51 µM
TGI [25]: 19.4 µM
GI50 [26]: 20 µM
TGI [26]: 55 µM
GI50 [27]: 14.6 µM
TGI [27]: 31.9 µM
GI50 [28]: 7.62 µM
TGI [28]: 20.5 µM
GI50 [29]: 3.22 µM
TGI [29]: 12.5 µM
GI50 [30]: 19.8 µM
TGI [30]: 70 µM
GI50 [31]: 18.1 µM
TGI [31]: 37.4 µM
GI50 [32]: 14.5 µM
TGI [32]: 27.6 µM
GI50 [33]: 18.2 µM
TGI [33]: 41 µM
GI50 [34]: 2120 nM
TGI [34]: 6.94 µM
GI50 [35]: 4.81 µM
TGI [35]: 18.1 µM
GI50 [36]: 13.8 µM
TGI [36]: 32.6 µM
GI50 [37]: 13.7 µM
TGI [37]: 32.4 µM
GI50 [38]: 16.6 µM
TGI [38]: 34.3 µM
GI50 [39]: 15 µM
TGI [39]: 29.5 µM
GI50 [40]: 14.7 µM
TGI [40]: 28.7 µM
GI50 [41]: 16.3 µM
TGI [41]: 30.3 µM
GI50 [42]: 16.1 µM
TGI [42]: 30.4 µM
GI50 [43]: 16.2 µM
TGI [43]: 30.3 µM
GI50 [44]: 14.8 µM
TGI [44]: 30.4 µM
GI50 [45]: 12.9 µM
TGI [45]: 25.6 µM
GI50 [46]: 14.3 µM
TGI [46]: 27.7 µM
GI50 [47]: 16 µM
TGI [47]: 70.1 µM
GI50 [48]: 20.5 µM
TGI [48]: 48.9 µM
GI50 [49]: 23.1 µM
TGI [49]: 58.3 µM
GI50 [50]: 10.4 µM
TGI [50]: 22.5 µM
GI50 [51]: 13.9 µM
TGI [51]: 27.1 µM
GI50 [52]: 6.29 µM
TGI [52]: 20.1 µM
GI50 [53]: 19.5 µM
TGI [53]: 44.4 µM
GI50 [54]: 16.1 µM
TGI [54]: 31 µM
GI50 [55]: 6.9 µM
TGI [55]: 24.1 µM
